Laboratory results: US20250186369A1, “COMPOUNDS, COMPOSITIONS, AND METHODS FOR TREATING, AMELIORATING, AND/OR PRVENTING COCAINE USE DISORDER” (Drexel University, priority 2022, published 2025)

Columns and labels:
[1] = biological target: T1, D3 receptor (Homo sapiens, UniProt P35462); experiment: ERK1/2 MAPK activation assay (phosphorylation immunoblot), D3 receptor; type: cell-based; details: 1 μM, 2 min, CHO-D3R (or HEK-D3R) cells
T1 construct: expressed in transfected cells; host or cells: CHO-D3R (or HEK-D3R) cells
T1 sequence (P35462 whole entry): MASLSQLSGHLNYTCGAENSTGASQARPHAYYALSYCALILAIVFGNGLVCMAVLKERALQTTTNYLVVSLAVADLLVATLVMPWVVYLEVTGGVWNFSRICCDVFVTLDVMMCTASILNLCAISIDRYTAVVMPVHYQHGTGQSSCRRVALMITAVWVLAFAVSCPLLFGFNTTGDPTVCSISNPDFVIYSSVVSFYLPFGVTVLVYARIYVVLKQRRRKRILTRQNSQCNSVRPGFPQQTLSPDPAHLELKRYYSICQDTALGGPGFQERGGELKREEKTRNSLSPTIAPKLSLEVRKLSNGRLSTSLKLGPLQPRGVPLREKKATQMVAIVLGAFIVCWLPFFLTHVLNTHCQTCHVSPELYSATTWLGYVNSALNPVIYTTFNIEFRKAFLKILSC
Experimental: (§1) Selected compounds of the disclosure, as well as dopamine (DA) and PD128907 [a commercially available dopamine D2/D3 agonist; (4aR,10bR)-3,4a,4,10b-tetrahydro-4-propyl-2H,5H-[1]benzopyrano-[4,3-b]-1,4-oxazin-9-ol], were tested in an established ERK1/2 MAPK activation assay for dopamine D2 or D3 agonist activity. The results of these side-by-side tests, comprising immunoblot analysis of phosphorylated ERKT/2 MAPK, are illustrated in FIGS. 9-10.
(§2) Functional screening was conducted with vehicle or test compounds using ERK1/2 phosphorylation as endpoint as described herein. 0.4×10^6 CHO-D3R (or HEK-D3R) and CHO-D2R (or HEK-D2R) cells were seeded in 6-well plates and cultured in 3 ml DMEM complete growth medium for 48 h. […]
(§3) Cell lysates were assayed or protein content with DC Protein Assay Kit II (Bio-Rad). […] Total p44/42 MAPK levels in the same blots were also determined with rabbit anti-p44/42 MAPK monoclonal or polyclonal antibody (1:5000, Cell Signaling Technology) after stripping the blots of the same PVDF membrance. Chemiluminescence detection was performed using the SuperSignal West Dura Extended Duration Substrate detection kit (Thermo Scientific, Rockford, IL) and phosphorylated or total ERK1/2 MAPK immunoblots were quantified by densitometry with ImageQuant LAS4000 (GE Healthcare Bio-Sciences, Pittsburgh, PA). […]

[2] = biological target: T2, D2 receptor (Homo sapiens, UniProt P14416); experiment: ERK1/2 MAPK activation assay (phosphorylation immunoblot), D2 receptor; type: cell-based; details: 1 μM, 2 min, CHO-D2R (or HEK-D2R) cells
T2 construct: expressed in transfected cells; host or cells: CHO-D2R (or HEK-D2R) cells
T2 sequence (P14416 whole entry): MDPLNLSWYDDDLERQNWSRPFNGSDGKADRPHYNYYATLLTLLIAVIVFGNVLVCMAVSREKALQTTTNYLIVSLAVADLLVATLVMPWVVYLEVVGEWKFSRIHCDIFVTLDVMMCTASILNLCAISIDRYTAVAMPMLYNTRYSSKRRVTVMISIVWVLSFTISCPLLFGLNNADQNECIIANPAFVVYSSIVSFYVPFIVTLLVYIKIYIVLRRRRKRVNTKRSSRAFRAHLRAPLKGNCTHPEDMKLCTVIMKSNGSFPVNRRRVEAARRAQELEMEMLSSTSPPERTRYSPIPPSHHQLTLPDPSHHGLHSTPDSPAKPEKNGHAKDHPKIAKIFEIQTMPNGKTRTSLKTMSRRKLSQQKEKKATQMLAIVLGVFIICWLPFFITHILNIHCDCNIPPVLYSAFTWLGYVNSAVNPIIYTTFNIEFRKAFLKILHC
Experimental: as §1, §2, §3

[3] = Self-administration of PRX or SK609 on fixed ratio 1 schedule before and after cocaine (FIG. 7)
Experimental: FIG. 7A: Rats were implanted with jugular catheters and then allowed to self-administer either pramipexole (PRX; 0.25 mg/kg) or SK609 (609; 4 mg/kg) on a 6-hr, fixed ratio 1 schedule of reinforcement (Pre-Cocaine; left gray shading). After 10 days of PRX or SK609 access, rats were switched to cocaine (0.75 mg/kg). Once rats acquired cocaine self-administration behavior (defined as 20 injections of cocaine within a single 6-session) they were allowed another two days of cocaine access (Cocaine; blue shading). Only the last 3 days of cocaine self-administration are plotted. After cocaine self-administration, rats were switched back to PRX and SK609 to assess if these compounds would now maintain reinforced responding (Post-Cocaine; right gray shading). […] Data are mean±s.e.m. Student's t-test. *p<0.05.
After 10 days of PRX or SK609 access, rats were switched to cocaine (0.75 mg/kg). Once rats acquired cocaine self-administration behavior (defined as 20 injections of cocaine within a single 6-session) they were allowed another two days of cocaine access (Cocaine; blue shading). Only the last 3 days of cocaine self-administration are plotted. After cocaine self-administration, rats were switched back to PRX and SK609 to assess if these compounds would now maintain reinforced responding (Post-Cocaine; right gray shading).
Data are mean±s.e.m. Student's t-test. *p<0.05.

[4] = tested on: dopamine transporter (DAT); experiment: Fast scan cyclic voltammetry of dopamine release and uptake in nucleus accumbens core tissue after i.p. dosing; type: in vivo, rats; details: for dopamine release at baseline: FIG. 8B; for dopamine release at baseline / dopamine uptake at baseline: naive rats, i.p. 30 min prior to sacrifice, PRX 0.25 mg/kg, SK608 4 mg/kg, SK609 4 mg/kg, vs saline; for dopamine uptake at baseline: FIG. 8C; for dopamine release after bath-applied cocaine: FIG. 8D; for dopamine release after bath-applied cocaine / inhibition of dopamine uptake by cocaine: same dosing, cocaine bath applied to tissue; for inhibition of dopamine uptake by cocaine: FIG. 8E
Experimental: (§4) (FIG. 3A) DA release, (FIG. 3B) DA uptake (Vmax), and (FIG. 3C) DAT sensitivity to cocaine (inhibition of DA uptake; app Km) following vehicle (Veh) or 4 mg/kg SK609.
(§5) Naive rats were injected intraperitoneally with saline (SAL), pramipexole (PRX; 0.25 mg/kg), SK608 (608; 4 mg/kg), or SK609 (609; 4 mg/kg) 30 min prior to sacrifice. […] (FIG. 8A) Example dopamine traces, (FIG. 8B) dopamine release and (FIG. 8C) dopamine uptake at baseline, (FIG. 8D) dopamine release and (FIG. 8E) inhibition of dopamine uptake. Data are mean±s.e.m.
as §4
as §5, with “mean s.e.m.” for “mean±s.e.m.”

[5] = in vivo; cited from earlier work
[6] = tested on: pDAT; experiment: Time course densitometry of pDAT levels in SH-SY5Y-D3R cells; type: cell-based; details: PRX 5 nM, SK608 1 μM, SK609 1 μM; for pDAT levels, combined with / post cocaine (CC): FIG. 5B, cocaine 1 μM
Experimental: FIGS. 5A-5B illustrate that SK609 and its analogues reduce pDAT levels when pretreated with cocaine in a time dependent manner. Time course densitometry analysis of the effects of cocaine (1 μM), PRX (5 nM), SK608 (1 μM), and SK609 (1 μM) on pDAT levels in SH-SY5Y-D3R cells. Different groups of cells were pre-treated with (FIG. 5A) CC, PRX, SK609 and SK608 or (FIG. 5B) CC, CC/PRX, CC/SK609 and CC/SK608 and were collected at the time points indicated. pDAT levels were measured and GAPDH was used as loading control. Data are presented as mean±sd from three independent experiments performed in triplicate.

[7] = Cocaine self-administration on Progressive Ratio (PR) schedule, motivation for cocaine; type: in vivo, rodent; details: i.p. 2 mg/kg or 4 mg/kg SK609
Experimental: FIGS. 2A-2B illustrate that SK609 reduces motivation for cocaine in a rodent self-administration model. […] (FIG. 2A) Breakpoints and (FIG. 2B) lever presses following i.p. vehicle, 2 mg/kg or 4 mg/kg SK609. Data are expressed as the mean±s.e.m., percent of baseline responding. *P<0.05.
(FIG. 2A) Breakpoints and (FIG. 2B) lever presses following i.p. vehicle, 2 mg/kg or 4 mg/kg SK609. Data are expressed as the mean±s.e.m., percent of baseline responding. *P<0.05.

[8] = SK609 self-administration in rats (FIG. 1); type: in vivo; details: rats given access to 4 mg/kg SK609; comparison 0.75 mg/kg cocaine
Experimental: (§6) Shown are injections taken for rats given access to 4 mg/kg SK609 and 0.75 mg/kg cocaine. Dashed line represents acquisition criteria which required 4 consecutive days of 10 injections per session. Cocaine data are aligned to the first day in which rats met acquisition criteria. Data represent mean±s.e.m. *p<0.05, ***p<0.001.
as §6, with “Shown in FIG. 1” for “Shown”, “mean s.e.m.” for “mean±s.e.m.”

[9] = tested on: pDAT; experiment: Western blot / densitometry of pDAT in striatal synaptosomes of cocaine-treated rats; type: in vivo; details: cocaine 15 mg/kg pre-treatment, SK609 4 mg/kg
Experimental: (FIG. 4A) Representative western blots for pDAT, tDAT, D3R, βarr2 and GAPDH on striatal synaptosomes derived from rats treated with either saline (sal) or cocaine (CC) (15 mg/kg) or SK609 (4 mg/kg) or Pramipexole (PRX; (S)-N^6-propyl-4,5,6,7-tetrahydro-1,3-benzothiazole-2,6-diamine) (0.25 mg/kg) with and without cocaine pre-treatment. […] (FIG. 4B) Densitometry analysis of pDAT expression. Data are presented as mean s.e.m. from 3 independent experiments from n=3 rats/group. *p<0.05, **p<0.001.
(FIG. 4A) Representative western blots for pDAT, tDAT, D3βarr2 and GAPDH on striatal synaptosomes derived from rats treated with either saline (sal) or cocaine (CC) (15 mg/kg) or SK609 (4 mg/kg) or Pramipexole (PRX) (0.25 mg/kg) with and without cocaine pre-treatment. (FIG. 4B) Densitometry analysis of pDAT expression. Data are presented as mean±s.e.m. from 3 independent experiments from n=3 rats/group. *p<0.05, **p<0.001.

Compound	ERK1/2 phosphorylation induced by activation of D3 receptor [1]	ERK1/2 phosphorylation induced by activation of D2 receptor [2]	overall intake, post-cocaine ([3]; rat, in vivo)	cumulative intake, pre-cocaine ([3]; rat, in vivo, 10 days)	dopamine release at baseline [4]	dopamine uptake at baseline [4]	dopamine release after bath-applied cocaine [4]	inhibition of dopamine uptake by cocaine [4]	compulsive drug seeking behavior [5]	pDAT levels, compound on its own ([6]; FIG. 5A)	pDAT levels, combined with / post cocaine (CC) [6]	motivation for cocaine (breakpoints, lever presses) [7]	acquisition of self-administration of the compound (reinforcing effect) ([3]; FIG. 7A, 6-hr fixed ratio 1, PRX 0.25 mg/kg, SK609 4 mg/kg)	self-administration (injections taken) [8]	DA release ([4]; FIG. 3A, 4 mg/kg SK609 vs vehicle)	DA uptake (Vmax) ([4]; FIG. 3B, 4 mg/kg SK609 vs vehicle)	pDAT expression in striatal synaptosomes [9]
CCCN1CCO[C@@H]2c3cc(O)ccc3OC[C@H]21 [PD128609, (4aR,10bR)-3,4a,4,10b-tetrahydro-4-propyl-2H,5H-[1]benzopyrano-[4,3-b]-1,4-oxazin-9-ol]	activated both D2 and D3 receptors	activated both D2 and D3 receptors	–	–	–	–	–	–	–	–	–	–	–	–	–	–	–
CCCN[C@H]1CCc2nc(N)sc2C1 [PRX, (S)-N^6-propyl-4,5,6,7-tetrahydro-1,3-benzothiazole-2,6-diamine, reference compound]	–	–	sustained higher overall PRX intake compared to SK609	higher cumulative intake of PRX compared to SK609	no effect on DA release or uptake	no effect on DA release or uptake	had no effect	had no effect	producing compulsive drug seeking behavior	significant increase in pDAT levels	significant increase in pDAT levels	–	–	–	–	–	–
CC(N)CCc1ccc(Cl)cc1 (stereo not drawn) [SK608, 4-(4-chlorophenyl)-butan-2-amine]	–	–	–	–	reduce DA release and uptake	reduce DA release and uptake	significantly reduced DA release and uptake inhibition by cocaine	significantly reduced DA release and uptake inhibition by cocaine	–	–	significantly reduced pDAT levels	–	–	–	–	–	–
CC(N)CCc1ccccc1Cl (stereo not drawn) [SK609, 4-(2-chlorophenyl)-butan-2-amine]	–	–	–	–	reduce DA release and uptake	reduce DA release and uptake	significantly reduced DA release and uptake inhibition by cocaine	significantly reduced DA release and uptake inhibition by cocaine	–	–	significantly reduced pDAT levels	reduced motivation for cocaine	not robust reinforcers	does not support self-administration	disrupts dopamine (DA) release and uptake	disrupts dopamine (DA) release and uptake	reduces expression of pDAT
